Consider 26 compounds from ChEMBL document CHEMBL4219115, “Synthesis and evaluation of 4',5'-dihydrospiro[piperidine-4,7'-thieno[2,3-c]pyran] analogues against both active and dormant Mycobacterium tuberculosis” (Bioorg Med Chem, 2018).

≈ marks a conversion by molar mass, not a printed value.

Data set [1] has as its system Mycobacterium tuberculosis. As to the kind of experiment: Antimycobacterial activity against active form of Mycobacterium tuberculosis H37Rv measured after 7 days by alamar blue assay. It counts as functional. The note with it: 168 h. In general terms: The colour change of resazurin is a common sign of viable cells or microbes.
In data set [2] the test system is Mycobacterium tuberculosis. As to the kind of experiment: Antimycobacterial activity against Mycobacterium tuberculosis H37Rv measured after 6 days by resazurin assay. It counts as functional. To be noted: 144 h.
The test system of a further data set is RAW264.7. As to the kind of experiment: Cytotoxicity against mouse RAW264.7 cells assessed as reduction in cell viability at 50 ug/ml after 48 hrs by MTT assay. It counts as cell-based. The note with it: raw264.7, 48 h. In general terms: Tetrazolium dyes change colour on reduction, which living cells bring about.
The test system of data set [3] is Mycobacterium tuberculosis. As to the kind of experiment: Antimycobacterial activity against nutrient starved dormant form of Mycobacterium tuberculosis H37Rv assessed as log reduction in bacterial count at 10 ug/ml measured after 7 days by […] relative to control. It counts as functional.
The target of data set [4] is T1, L-lysine-epsilon aminotransferase (Mycobacterium tuberculosis, UniProt P9WQ77).
T1 sequence (P9WQ77 whole entry): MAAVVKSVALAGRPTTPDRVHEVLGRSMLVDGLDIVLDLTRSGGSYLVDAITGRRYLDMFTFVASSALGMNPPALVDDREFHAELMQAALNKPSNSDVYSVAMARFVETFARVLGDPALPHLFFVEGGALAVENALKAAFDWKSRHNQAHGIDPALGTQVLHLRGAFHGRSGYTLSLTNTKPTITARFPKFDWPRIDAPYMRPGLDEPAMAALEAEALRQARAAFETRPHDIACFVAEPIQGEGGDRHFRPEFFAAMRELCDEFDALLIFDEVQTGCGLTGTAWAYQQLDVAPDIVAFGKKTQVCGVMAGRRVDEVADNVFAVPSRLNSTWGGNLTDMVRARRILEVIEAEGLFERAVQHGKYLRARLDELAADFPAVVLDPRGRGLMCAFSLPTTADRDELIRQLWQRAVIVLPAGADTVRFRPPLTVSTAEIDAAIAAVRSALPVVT
As to the kind of experiment: Inhibition of Mycobacterium tuberculosis LAT using L-lysine and alpha-ketoglutaric acid as substrate by spectrophotometric analysis.

In data set [1], `O=S(=O)(c1ccc(F)cc1)N1CCC2(CC1)OCCc1ccsc12` came in with an MIC of 34 µM (≈ 12.5 µg/mL). This lies in the double-digit micromolar range.
As to `c1cc2c(s1)CCOC21CCN(Cc2ccc3c(c2)OCCO3)CC1`, inhibition of growth in data set [2] (MIC) required 0.38 µM (≈ 0.136 µg/mL).
The compound `O=C(c1ccc(Cl)cc1)N1CCC2(CC1)OCCc1ccsc12` showed an MIC in data set [1] of 71.9 µM (≈ 25 µg/mL).
On the same count and under the same terms, the figure for `O=S(=O)(c1ccc(Cl)cc1)N1CCC2(CC1)OCCc1ccsc12` is 65.1 µM (≈ 25 µg/mL).
The same measure, in the same setting: the figure for `c1ccc(CN2CCC3(CC2)OCCc2ccsc23)cc1` is 83.5 µM (≈ 25 µg/mL); for `O=C(c1ccccc1)N1CCC2(CC1)OCCc1ccsc12` it is 79.8 µM (≈ 25 µg/mL).
Regarding `COc1ccc(S(=O)(=O)N2CCC3(CC2)OCCc2ccsc23)cc1`, the Activity in the data set with RAW264.7 turned out to be 12.32%. Moreover, the “log(activity)” value in data set [3] is listed as 2.8. This compound returned an IC50 in data set [4] of 1.04 µM. Besides, the MIC in data set [1] came to 8.23 µM (≈ 3.12 µg/mL).
On to `O=C(c1ccc(F)cc1)N1CCC2(CC1)OCCc1ccsc12`, for which the Activity in the data set on RAW264.7 is listed as 18.98%. Besides, in data set [1], the MIC is 18.9 µM (≈ 6.25 µg/mL).
With `NNC(=O)c1ccncc1` [ISONIAZID], the “log(activity)” value in data set [3] was 1.7. Also, the MIC in data set [1] turned out to be 0.66 µM (≈ 0.0905 µg/mL).
Regarding `COc1ccc(CN2CCC3(CC2)OCCc2ccsc23)cc1`, the MIC in data set [1] was 23.1 µM (≈ 7.62 µg/mL).
In the case of `COc1ccc(C(=O)N2CCC3(CC2)OCCc2ccsc23)cc1`, in the data set on RAW264.7, the Activity was 14.59%. In data set [1], this compound showed an MIC of 9.09 µM (≈ 3.12 µg/mL).
In data set [1], `Cc1ccc(CN2CCC3(CC2)OCCc2ccsc23)cc1` registered a minimal inhibitory concentration (MIC) of 79.8 µM (≈ 25 µg/mL).
Compound `O=S(=O)(c1ccc(Cl)cc1Cl)N1CCC2(CC1)OCCc1ccsc12` had an MIC in data set [1] of 29.9 µM (≈ 12.5 µg/mL). This MIC is about 2.7-fold lower than that of the compound before.
The compound `O=S(=O)(c1ccccc1)N1CCC2(CC1)OCCc1ccsc12` displayed an MIC in data set [1] of 71.5 µM (≈ 25 µg/mL).
The same measure, in the same setting: the figure for `Clc1ccc(CN2CCC3(CC2)OCCc2ccsc23)c(Cl)c1` is 33.9 µM (≈ 12.5 µg/mL).
`O=C(c1ccc(F)cc1F)N1CCC2(CC1)OCCc1ccsc12`: the Activity in the data set on RAW264.7 was 34.06%. Moreover, the “log(activity)” value in data set [3] was determined as 2.7. Besides, in data set [4], the 50% inhibitory concentration (IC50) came out at 3.48 µM. In addition, it took 8.94 µM (≈ 3.12 µg/mL) to inhibit growth in data set [1] (MIC).
In data set [1], `CC[C@@H](CO)NCCN[C@@H](CC)CO` [ETHAMBUTOL] had an MIC of 9.84 µM (≈ 2.01 µg/mL).
Compound `CC1COc2c(N3CCN(C)CC3)c(F)cc3c(=O)c(C(=O)O)cn1c23` (configuration not stated) [OFLOXACIN] came in with a minimum inhibitory concentration (MIC) in data set [1] of 2.16 µM (≈ 0.781 µg/mL).
Turning to `Cc1ccc(S(=O)(=O)N2CCC3(CC2)OCCc2ccsc23)cc1`, in the data set on RAW264.7, the Activity is 22.16%. For the same compound, the lowest concentration to inhibit growth in data set [1] (MIC) was 8.59 µM (≈ 3.12 µg/mL).
The corresponding values for `Fc1ccc(CN2CCC3(CC2)OCCc2ccsc23)cc1` are 21.67% and 19.7 µM (≈ 6.25 µg/mL).
On to `Fc1ccc(CN2CCC3(CC2)OCCc2ccsc23)c(F)c1`, for which, in data set [1], the MIC turned out to be 37.3 µM (≈ 12.5 µg/mL).
Still for that read-out and setting: the figure for `O=C(c1ccc(Cl)cc1Cl)N1CCC2(CC1)OCCc1ccsc12` is 32.7 µM (≈ 12.5 µg/mL).
Turning to `Cc1ccc(C(=O)N2CCC3(CC2)OCCc2ccsc23)cc1`, in the data set on RAW264.7, the Activity is 23.16%. Moreover, the MIC in data set [1] was found to be 19.1 µM (≈ 6.25 µg/mL).
Take `CO[C@H]1/C=C/O[C@@]2(C)Oc3c(C)c(O)c4c(O)c(c(/C=N/N5CCN(C)CC5)c(O)c4c3C2=O)NC(=O)/C(C)=C\C=C\[C@H](C)[C@H](O)[C@@H](C)[C@@H](O)[C@@H](C)[C@H](OC(C)=O)[C@@H]1C` [RIFAMPIN]: the “log(activity)” value in data set [3] was 2.
With `O=S(=O)(c1ccc(F)cc1F)N1CCC2(CC1)OCCc1ccsc12`, the Activity in the data set with RAW264.7 was 31.08%. The lowest concentration to inhibit growth in data set [1] (MIC) was 16.2 µM (≈ 6.25 µg/mL).
For `Clc1ccc(CN2CCC3(CC2)OCCc2ccsc23)cc1`, the Activity in the data set with RAW264.7 is recorded as 26.54%. Moreover, the “log(activity)” value in data set [3] is recorded as 2.4. For the same compound, in data set [4], the IC50 worked out at 6.83 µM. In data set [1], this compound had an MIC of 9.35 µM (≈ 3.12 µg/mL).

The MIC is the smallest concentration in the dilution series that meets the test's criterion for growth inhibition. A low value points to a more susceptible organism. As a reminder, the IC50 is the concentration that gives 50% inhibition.
